Measured values from US10869931B2, “Polyethylene glycol-modified angiogenesis inhibitor HM-1 and application thereof” (NANJING ANJI BIOLOGICAL TECHNOLOGY CO.,LTD, priority 2016, dated 2020).
Where no end group is shown, it is not given here.

How the values were obtained:
[1] = system: Head and neck cancer tumor cells; assay: MTT proliferation inhibition, head and neck cancer cells; type: cell-based, human; parameters: concentration or dose not given beside the values; details: 48 h
Experimental: (§1) The activity of mPEG-HM-1 to inhibit the growth of various tumor cells was examined by MTT assay. The tumor cells were cultured to a concentration of 90% or more in a 37° C., 5% CO2 incubator and collected by trypsinization. The cells were resuspended in the culture medium and counted under a microscope to adjust the cell concentration to 2×10^4 cells/mL, the cell suspension was inoculated into a 96-well plate at 100 μL/well and incubated overnight at 37° C. in a 5% CO2 incubator. mPEG-HM-1 was diluted with the culture solution to each predetermined concentration. Docetaxel is diluted to the final concentration with the culture medium. After the cells were fully attached, each dilution was added to a 96-well plate (100 μL/well). The mPEG-HM-1 dilution was added as a drug-administered group, and docetaxel was added as a positive control group, and a culture solution without any drug was used as a negative control group. Incubate for 48 h at 37° C. in a 5% CO2 incubator. 5 mg/mL of MTT was added to a 96-well plate at 20 μL per well, and incubation was continued for 4 hours. The medium was aspirated, dissolved in 150 μL of DMSO per well, and gently mixed by shaking for 10 min. The absorbance was measured at a measurement wavelength of 570 nm and a reference wavelength of 630 nm using a microplate reader, and the rate of growth inhibition (proliferation inhibition, PI) was calculated. The formula is as follows: PI (%)=1−administration group/negative group
(§2) The test was repeated 3 times independently, and the results obtained by the test were expressed as mean±SD, and the test results are shown in Table 15 to Table 18.

[2] = system: Esophageal cancer tumor cells; assay: MTT proliferation inhibition, esophageal cancer cells; type: cell-based, human; parameters: concentration or dose not given beside the values; details: 48 h
Experimental: as §1, §2

[3] = system: Lung cancer tumor cells; assay: MTT proliferation inhibition, lung cancer cells; type: cell-based, human; parameters: concentration or dose not given beside the values; details: 48 h
Experimental: as §1, §2

[4] = system: Liver cancer tumor cells; assay: MTT proliferation inhibition, liver cancer cells; type: cell-based, human; parameters: concentration or dose not given beside the values; details: 48 h
Experimental: as §1, §2

[5] = system: Breast cancer tumor cells; assay: MTT proliferation inhibition, breast cancer cells; type: cell-based, human; parameters: concentration or dose not given beside the values; details: 48 h
Experimental: as §1, §2

[6] = system: Kidney cancer tumor cells; assay: MTT proliferation inhibition, kidney cancer cells; type: cell-based, human; parameters: concentration or dose not given beside the values; details: 48 h
Experimental: as §1, §2

[7] = system: Cervical cancer tumor cells; assay: MTT proliferation inhibition, cervical cancer cells; type: cell-based, human; parameters: concentration or dose not given beside the values; details: 48 h
Experimental: as §1, §2

[8] = system: Uterine cancer tumor cells; assay: MTT proliferation inhibition, uterine cancer cells; type: cell-based, human; parameters: concentration or dose not given beside the values; details: 48 h
Experimental: as §1, §2

[9] = system: Prostate cancer tumor cells; assay: MTT proliferation inhibition, prostate cancer cells; type: cell-based, human; parameters: concentration or dose not given beside the values; details: 48 h
Experimental: as §1, §2

[10] = system: Hemangioma tumor cells; assay: MTT proliferation inhibition, hemangioma cells; type: cell-based, human; parameters: concentration or dose not given beside the values; details: 48 h
Experimental: as §1, §2

[11] = system: IL-1β production by mouse peritoneal macrophages; assay: IL-1β production by mouse peritoneal macrophages (ELISA); type: cell-based; details: 48 h
Experimental: (1) IL-1β production: mice were intraperitoneally injected with 1 mL of broth (containing 6%) starch, and three days later, the mouse peritoneal macrophages were aseptically taken, washed twice with 1640 medium, and the cell concentration was adjusted to 2×10^6 cells/mL, inject into a 24-well culture plate, 1 mL per well, incubate for 3 hours in a cell culture incubator, shake once every 30 minutes, and allow the cells to fully adhere. Then, it was washed twice with the culture solution to remove unattached cells. The blank group was added with PBS, the positive group was added with the positive drug dexamethasone (Dex), the model group was not administered, to the experimental group was added low, medium and high three concentrations of mPEG-HM-1, and the culture was continued for 48 hours after the administration, 1000 r/min. Centrifuge for 15 min. The supernatant was taken as a sample for testing activity of IL-1β.
(2) Determination of IL-1β content: using R&D mouse IL-1β enzyme-linked immunosorbent assay kit, according to the kit instructions as follows: respectively, the tested samples and different concentrations of standard products, sealed with sealing tape the reaction well and incubated at 37° C. for 90 min; the plate was washed four times; the biotinylated antibody working solution (100 μL/well) was added, and the reaction well was sealed with sealing paper, incubated at 37° c. for 60 min; the plate was washed four times; Add the enzyme conjugate working solution (100 μL/well), seal the reaction well with sealing paper, incubate at 37° C. for 30 min; wash the plate four times; add color reagent (100 μL/well), incubate at 37° C. 10-20 min, add stop solution (100 μL/well), mix and measure OD450 value.

[12] = system: neovascularization in rat model of premature retinopathy; assay: Fluctuating-oxygen rat model of premature retinopathy (endothelial nuclei count); type: in vivo; details: for Cell nuclei count: day 14
Experimental: A fluctuating oxygen-induced animal model was used to randomly divide the newborn rats that were naturally delivered on the same day (within 12 hours) into three groups: the oxygenated model group, the oxygenated treatment group, and the normal control group. The oxygenated model group was subdivided into three subgroup models and along with the oxygenated treatment group was placed in a semi-closed oxygen chamber made of plexiglass. The chamber was connected to medical oxygen, and the oxygen analyzer was adjusted to a concentration of 80%±2%. After 24 hours, Nitrogen gas was introduced into the oxygen chamber, and the oxygen concentration was adjusted to 10%±2% and maintained for 24 h. This process was repeated, so that the oxygen concentration in the oxygen chamber is switched between 80% and 10% every 24 hours, and then transferred to the air for 7 days. The oxygen concentration was monitored 8 times a day, and the ambient temperature in the control cabin was 23° C.±2° C. Bedding change, adding food, changing water and replacing mother rats were performed once a day. The normal control group was placed in an animal facility environment. […] The oxygenated therapeutic components were divided into four subgroups, and on the 7th day of modeling, mPEG-SC-HM-1, mPEG2-NHS-HM-1, mPEG-ALD10k-HM-1, and mPEG-bALD-HM-1 were respectively administered by intravitreal injection. Only normal saline was administered to the oxygen model group and the control group. The administrations continued for 1 week. […] After immersion in wax, serial section at thickness of 4 μm was performed, wherein the sections were kept away from the optic disc. The sections are parallel to the sagittal plane of the cornea to the optic disc. Ten sections per eyeball were randomly selected from each eyeball to be stained with hematoxylin and eosin, and the number of vascular endothelial cells that broke through the retinal inner membrane was counted (only the vascular endothelial nucleus closely related to the inner retinal membrane was counted), and the average numbers of endothelial cells per eyeball per slice was counted.

[13] = in vivo
[14] = 50 μg intravitreal for 1 week from day 7, vascular endothelial nuclei per slice

Row | Substance | rate of growth inhibition [1] [%] | rate of growth inhibition [2] [%] | rate of growth inhibition [3] [%] | rate of growth inhibition [4] [%] | rate of growth inhibition [5] [%] | rate of growth inhibition [6] [%] | rate of growth inhibition [7] [%] | rate of growth inhibition [8] [%] | rate of growth inhibition [9] [%] | rate of growth inhibition [10] [%] | IL-1β ([11]; 10 μg/mL) [pg/mL] | Inhibition Rate of IL-1β production ([11]; 10 μg/mL) [%] | IL-1β ([11]; 20 μg/mL) [pg/mL] | Inhibition Rate of IL-1β production ([11]; 20 μg/mL) [%] | IL-1β ([11]; 40 μg/mL) [pg/mL] | AUC0-∞ [13] [mg/L/h] | CL [13] [mL/min/kg] | MRT0-∞ [13] [h] | T1/2β (half-life) [13] [h] | Inhibition Rate of IL-1β production ([11]; 40 μg/mL) [%] | also measured
1 | mPEG-ALD10k-Arg-Gly-Ala-Asp-Arg-Ala-Gly-Gly-Gly-Gly-Arg-Gly-Asp ({mPEG‑ALD 10 kDa}-RGADRAGGGGRGD) [mPEG-ALD10k-HM-1] | 48.93 ± 12.14 | 65.18 ± 15.16 | 65.73 ± 16.20 | 70.55 ± 20.09 | 70.19 ± 17.07 | 75.23 ± 19.11 | 83.04 ± 18.74 | 90.79 ± 22.19 | 51.09 ± 11.78 | 60.25 ± 14.33 | 724.09 ± 16.59 | 21.03 | 620.94 ± 18.43 | 32.28 | 455.16 ± 10.95 | 5067.98 ± 9.79 | 0.425 ± 0.122 | 11.05 ± 7.68 | 16.46 ± 0.10 |  | Cell nuclei count [12, 14]: 7.581 ± 1.903
2 | mPEG-ALD20k-Arg-Gly-Ala-Asp-Arg-Ala-Gly-Gly-Gly-Gly-Arg-Gly-Asp ({mPEG‑ALD 20 kDa}-RGADRAGGGGRGD) [mPEG-ALD20k-HM-1] | 47.61 ± 10.68 | 60.18 ± 15.32 | 66.38 ± 17.16 | 65.31 ± 18.18 | 65.17 ± 18.20 | 70.23 ± 20.58 | 75.66 ± 20.10 | 89.37 ± 23.47 | 43.99 ± 12.77 | 53.30 ± 16.06 |  |  | 729.13 ± 13.12 | 20.48 | 628.18 ± 15.34 | 5899.46 ± 6.68 | 0.215 ± 0.177 | 18.65 ± 2.57 | 22.65 ± 0.21 | 31.49 | IL-1β ([11]; 80 μg/mL): 438.93 ± 12.56 pg/mL; Inhibition Rate of IL-1β production ([11]; 80 μg/mL): 52.13%; Cell nuclei count ([12]; 100 μg intravitreal for 1 week from day 7, vascular endothelial nuclei per slice): 7.036 ± 1.315; vascular endothelial cell nuclei count ([12]; neonatal rats, 100 μg intravitreal, 1 week): 7.036±1.315
3 | mPEG-ALD40k-Arg-Gly-Ala-Asp-Arg-Ala-Gly-Gly-Gly-Gly-Arg-Gly-Asp ({mPEG‑ALD 40 kDa}-RGADRAGGGGRGD) [mPEG-ALD40k-HM-1] | 42.18 ± 10.01 | 58.11 ± 14.67 | 55.44 ± 16.13 | 60.78 ± 10.88 | 60.17 ± 19.24 | 68.46 ± 20.98 | 70.62 ± 19.14 | 82.59 ± 21.37 | 42.91 ± 11.65 | 50.67 ± 14.02 |  |  |  |  | 742.06 ± 16.59 | 5276.69 ± 9.84 | 0.108 ± 0.0967 | 16.52 ± 3.06 | 43.31 ± 0.22 | 19.07 | IL-1β ([11]; 80 μg/mL): 664.40 ± 18.43 pg/mL; Inhibition Rate of IL-1β production ([11]; 80 μg/mL): 27.54%; IL-1β ([11]; 160 μg/mL): 495.96 ± 10.95 pg/mL; Inhibition Rate of IL-1β production ([11]; 160 μg/mL): 45.91%; Cell nuclei count ([12]; 200 μg intravitreal for 1 week from day 7, vascular endothelial nuclei per slice): 8.673 ± 2.756
4 | mPEG-SC5k-Arg-Gly-Ala-Asp-Arg-Ala-Gly-Gly-Gly-Gly-Arg-Gly-Asp ({mPEG‑SC 5 kDa}-RGADRAGGGGRGD) [mPEG-SC5k-HM-1] | 40.27 ± 11.36 | 44.38 ± 10.72 | 45.33 ± 12.67 | 51.34 ± 11.25 | 48.13 ± 12.17 | 51.07 ± 12.45 | 51.11 ± 16.20 | 60.25 ± 16.09 | 38.37 ± 15.61 | 43.68 ± 12.53 | 678.12 ± 12.09 | 27.63 | 561.18 ± 13.21 | 40.11 |  | 4391.72 ± 12.85 | 0.997 ± 0.18 | 7.68 ± 2.97 | 8.31 ± 0.12 |  | IL-1β ([11]; 5 μg/mL): 762.83 ± 15.46 pg/mL; Inhibition Rate of IL-1β production ([11]; 5 μg/mL): 18.59%; Cell nuclei count ([12]; 25 μg intravitreal for 1 week from day 7, vascular endothelial nuclei breaking through inner retinal membrane per slice): 9.104 ± 3.087
5 | mPEG-SC10k-Arg-Gly-Ala-Asp-Arg-Ala-Gly-Gly-Gly-Gly-Arg-Gly-Asp ({mPEG‑SC 10 kDa}-RGADRAGGGGRGD) [mPEG-SC10k-HM-1] | 45.61 ± 11.12 | 52.18 ± 10.25 | 50.29 ± 13.18 | 57.18 ± 12.35 | 50.16 ± 13.27 | 60.07 ± 14.24 | 57.17 ± 18.40 | 65.29 ± 19.06 | 45.39 ± 12.63 | 52.88 ± 13.66 | 758.05 ± 15.18 | 19.10 | 666.50 ± 11.93 | 28.87 | 553.03 ± 14.12 | 4671.86 ± 10.76 | 0.455 ± 0.0933 | 12.67 ± 5.84 | 15.18 ± 0.11 | 40.98 | Cell nuclei count [12, 14]: 8.528 ± 3.109
